Results reported in patent publication US6001810A, “Methods for treating retroviral infection” (Eli Lilly and Company, priority 1990, dated 1999).
Values after ≈ are worked out from the molar mass of the structure shown. Values joined by “and” are separate entries in the source; they are usually repeats but may differ in a detail not shown here. Equal entries are not always repeated. Blank lines part the entries; values can stand above or below the compound they belong to. Non-standard residues stand in square brackets, D forms with d. Residues, ends and D or L forms follow the SMILES beside them. Phe(4-NH2) = Nc1ccc(C[C@H](N)C(=O)O)cc1; Sta = CC(C)C[C@H](N)[C@@H](O)CC(=O)O

What was measured:
MT-2 cells = type: cell-based
Protocol: (§1) Quantitative evaluation of the viral inhibition were performed on the T-cell lymphoblastoid cell lines MT-2 (Harada et al., 1985, Science 229:563-566) and CEM (Nara and Fischinger, 1988, Nature 332:469-470). The cells were infected with the HTLV-IIIB strain of HIV-1 from the supernatant fluid of infected human T-lymphocyte cell line H9 (Popovic, M. et al., 1984, Science 224:497-500). Each of these three cell lines are publicly available from the National Institutes of Health (NIH) AIDS Research and Reference Reagent Program. The H9/HTLC-IIIB cell line is available under catalogue number 231, while CEM cell line is available under catalogue number 117 and the MT-2 cell line is available under the catalogue number 237. MT-2 and CEM cells were grown in RPMI 1640 medium supplemented with 10% (v/v) fetal calf serum, 100 U/ml penicillin, 100 μg/ml streptomycin and 25 mM HEPEs buffer. H9 cells were grown in the same medium except 20% fetal calf serum was used. The peptides were diluted in the medium used for MT-2 and CEM cells. Cell cultures were maintained in disposable tissue culture labware at 37° C. in a humidified atmosphere of 5% CO2 in air.
(§2) The inhibitors were dissolved in DMSO at 40 mg/ml or sterile water at 2 mg/ml, then dilutions were made in medium. The dilutions were added to micro-titer plates in 100 μl/well aliquots so that the high drug concentration for each screen was 100 μg/ml after the addition of cells to the well.
(§3) Susceptible MT-2 and CEM cells were grown and the cell population determined by a trypan blue viable cell count. The desired total number of cells were placed in a sterile, disposable 50 ml conical centrifuge tube and virus was added to give an MOI (Multiplicity of Infection) of 0.03 TCID50 /cell (Tissue Culture Infectious Dose) on MT-2 cells and approximately 0.12 TCID50 /cell on CEM cells. Fresh medium was added to adjust the cell density to 1×10^5 cells/ml, then the virus-cell suspension was incubated at 37° C. for 1 to 2 hours until plating. Uninfected controls cell were prepared in the same manner but without the addition of virus. Infected and uninfected cells were added to plates in 100 μl/well aliquots to give a starting cell number of 1×10^4 cells/well. The plates were incubated for seven days in a humidified atmosphere of 5% CO2 in air.
(§4) Reagents for colorimetric evaluation of cell viability were prepared by mixing the tetrazolium reagent, XTT, and phenazine methosulfate (PMS) to final concentrations of 200 μg/ml and 0.02 mM, respectively. […] The plates were read with the sealers in place in a Vmax Plate Reader® at 450 nm and 650 nm. The cytopathic effect (CPE) and percentage of cell viability were then calculated.

[1] = tested on: HTLV-IIIB strain of HIV-1; experiment: Inhibition of HIV-1 cytopathic effect in CEM cells (XTT); type: cell-based; details: for IC25 (concentration that reduced CPE by 25%): Table V first column
Protocol: as §1, §2, §3
as §4, with “calculated. […]” for “calculated.”

CEM cells = type: cell-based
Protocol: as §1, §2, §3
Reagents for colorimetric evaluation of cell viability were prepared by mixing the tetrazolium reagent, XTT, and phenazine methosulfate (PMS) to final concentrations of 200 μg/ml and 0.02 mM, respectively. Fifty microliters of the XTT-PMS solution was added to each well of the microtiter plates, then the plates were incubated in the CO2 incubator for another four hours. The lids were removed from the plates and replaced with adhesive plate sealers. The plates were read with the sealers in place in a Vmax Plate Reader® at 450 nm and 650 nm. The cytopathic effect (CPE) and percentage of cell viability were then calculated.
The activity and cytotoxicity of several other peptides were also assayed in CEM cells using the same procedure as described above. These assays also included toxicity and activity levels of both 25% and 50%.

[2] = tested on: HTLV-IIIB strain of HIV-1; experiment: Inhibition of HIV-1 cytopathic effect in MT-2 cells (XTT); type: cell-based; details: 7 days
Protocol: as §1, with “H9 cells were grown in the same medium except 20% fetal calf serum was used. The peptides were diluted in the medium used for MT-2 and CEM cells. Cell cultures were maintained in disposable tissue culture labware at 37° C. in a humidified atmosphere of 5% CO2 in air.” left out
Susceptible MT-2 and CEM cells were grown and the cell population determined by a trypan blue viable cell count. […]
as §4

[3] = tested on: complex of Friend's Spleen-Forcus Virus (Fr. SFFV) and Friend's Murine Leukemia Virus (F. MLV); experiment: In vivo inhibition of Friend Virus Complex in DBA/2 mice; design: Spleen / Inhibition % (spleen): dose or concentration left out as unconfirmed; details: individual infected DBA/2 mice
Protocol: Formulations of peptides P-9 and P-7 were prepared for injection into DBA/2 mice. The formulations were prepared by dissolving the purified peptides in Emulphor™ EL620 which was purchased from the GAF Chemical Corporation, 1361 Alps Row, Wayne, N.J., 07470. The drugs were injected intraperitoneally one hour before the mice were infected with a complex of Friend's Spleen-Forcus Virus (Fr. SFFV) and Friend's Murine Leukemia Virus (F. MLV). These viruses ordinarily cause polycythermia (elevated levels of red blood cells) and splenomegaly (enlargement of spleen) within two to three week post-infection. The mice were injected twice daily with the inhibitor formulation for twenty days after the infection.
*Drugs were dissolved in Emulphor ™, injected IP one hour before
infection, then twice daily for 20 days.
^a Titers of Fr.MLV in the spleens (supernatents of 10% homogenates)
were determined by XC plaque assay.

Mo-MuLV = experiment: Moloney Murine Leukemia Virus Assay, CPE inhibition in SC-1/XC cells; type: cell-based; design: key: 4+(>90%); 3+(>60%); 2+(>40%); 1+(>20%); -(Negative)
Protocol: (§5) About 3 to 5×10^3 SC-1 cells (available from the American Type Culture Collection, Rockville, Md. under the accession number ATCC CRL-1404) per well of a 96-well microtiter plate were seeded in minimal essential medium supplemented with 5% fetal bovine serum, penicillin (150 U/ml), Streptomycin (150 μg/ml) and polybrene (2 μg/ml), then infected with Mo-MuLV (Multiplicity of Infection=10 PFU/cell) the next day. The virus was allowed to adsorb to the cells for 1 hour, then medium containing serial dilutions of P-7, P-9 or medium alone was added to the cells. Pepstatin A ([…]-Val-Val-Statine-Ala-Statine) and AZT (3'-Azido-3'-deoxythymidine) were also added as controls. After incubation for 5 days (when cells were confluent) the SC-1 cells were UV irradiated for 10 seconds and 5 to 8×10^4 XC cells (ATCC CCL-165) per well were added. Generally, about two additional days of incubation were required to obtain full virus-induced cytopathic effect.

MLV = MLV XC Plaque Reduction Assay - Virus Yield; type: cell-based, Murine Leukemia Virus
Protocol: as §5
The assay described above was also preferred to determine the virus yield. In this experiment, the supernatents were removed from the SC-1 cells four days after infection and tested for MLV titers, using the XC-plaque assay as previously described.

IC25 (Table V) (CEM cells): 0.04 mg/L (≈ 0.189 µM)
Structure (SMILES): Nc1ccn([C@H]2CC[C@@H](CO)O2)c(=O)n1 [DDC, 2', 3Dideoxycytidine]
MTC50 (minimum cytotoxic drug concentration that reduces cell viability to 50%) (MT-2 cells): > 10 µg/mL
IC25 (concentration that reduced CPE by 25%) [1]: 0.0032 mg/L (≈ 0.0152 µM)
TC50 (concentration that reduced cell viability by 50%) (CEM cells): 0.8 mg/L (≈ 3.79 µM)
ID50 (minimum drug concentration that inhibited CPE by 50%) [2]: 0.11 mg/L and 0.10 mg/L

Structure (SMILES): CC(C)C[C@H](NC(=O)C[C@H](O)[C@H](CC(C)C)NC(=O)[C@@H](NC(=O)[C@H](Cc1ccccc1)NC(=O)[C@@H]1CCCN1C(=O)[C@@H](N)Cc1c[nH]cn1)C(C)C)C(=O)N[C@@H](Cc1ccccc1)C(=O)N[C@@H](Cc1ccc(N)cc1)C(N)=O [P-15, H-His Pro Phe Val Statine Leu Phe paF NH2] (H-HPFV[Sta]LF[Phe(4-NH2)]-NH2)
MTC50 (minimum cytotoxic drug concentration that reduces cell viability to 50%) (MT-2 cells): > 100 µg/mL
MTC50 (minimum cytotoxic drug concentration that reduces cell viability to 50%) (CEM cells): > 100 µg/mL

IC50 ([1]; Human immunodeficiency virus 1, IIIB, CCRF-CEM, Table V, read-out: IC50 (concentration that reduced CPE by 50%)): < 0.0032 mg/L
IC25 (Table V) (CEM cells): > 1.0 mg/L
Structure (SMILES): Cc1cn([C@H]2C[C@H](N=[N+]=[N-])[C@@H](CO)O2)c(=O)[nH]c1=O [AZT, 3'-Azido-3'-deoxythymidine]
Inhibiton % (virus titer) ([3]; 100 pg IP twice daily for 20 days): > 99% and 95%
Virus Titer (Fr.MLV in the spleens, XC plaque assay) ([3]; 100 pg IP twice daily for 20 days, supernatents of 10% homogenates): 500 PFU/ml and 20,000 PFU/ml
Spleen ([3]; IP one hour before infection, then twice daily for 20 days): 0.17 gm and 0.21 gm
Inhibition % (spleen) ([3]; IP twice daily for 20 days): 85% and 81%
IC25 (concentration that reduced CPE by 25%) [1]: < 0.0032 mg/L
Maximum inhibition reached (CPE) ([1]; inhibition decreased as drug concentration increased): 60%
CPE inhibition score (Mo-MuLV; .0004 μg/ml): -
CPE inhibition score (Mo-MuLV; .0008 μg/ml): -
CPE inhibition score (Mo-MuLV; .003 μg/ml): 2+ (2+(>40%))
CPE inhibition score (Mo-MuLV; .006 μg/ml): 3+ (3+(>60%))
CPE inhibition score (Mo-MuLV; .012 μg/ml): 4+ (4+(>90%))
CPE inhibition score (Mo-MuLV; .015 μg/ml): 1+ (1+(>20%))
CPE inhibition score (Mo-MuLV; .025 μg/ml): 4+ (4+(>90%))
CPE inhibition score (Mo-MuLV; .05 μg/ml): 4+ (4+(>90%))
CPE inhibition score (Mo-MuLV; .1 μg/ml): 4+ (4+(>90%))
CPE inhibition score (Mo-MuLV; .2 μg/ml): 4+ (4+(>90%))
Yield (MLV; 3.125 ng/ml): 2.9 × 10^4 PFU/ML
Yield (MLV; 6.25 ng/ml): 80 PFU/ML
Yield (MLV; 12.5 ng/ml): < 10 PFU/ML
% Inhibition (virus yield) (MLV; 25 ag/ml): > 99%
Yield (MLV; 25 ag/ml): < 10 PFU/ML
inhibition at 0.003125 µg/mL (MLV; Murine leukemia virus, 3.125 ng/ml): 98%
inhibition at 0.00625 µg/mL (MLV; Murine leukemia virus, 6.25 ng/ml): > 99%
inhibition at 0.0125 µg/mL (MLV; Murine leukemia virus, 12.5 ng/ml): > 99%
TC50 (concentration that reduced cell viability by 50%) (CEM cells): > 1.0 mg/L
